How the values were obtained:
[1] = test system: mouse peritoneal macrophages transduced with Ad-GFP; experiment: Enhancement of GFP expression in peritoneal macrophages transduced with Ad-GFP, PRR agonists (Example 4); assay type: cell-based; conditions: Ad-GFP 2 × 10^7 PFU/ml, 4 days
Procedure: Mouse peritoneal macrophages (BALB/c female mice, Stolbovaya breeding nursery) were washed with physiological saline solution, pelleted by centrifugation at 1200 rpm for 10 min, suspended in the complete cell culture medium (CCM, consisting of RPMI-1640 medium supplemented with 10% fetal calf serum, 2 mM L-glutamine, 50 μM of (3-mercaptoethanol, and 10 μg/ml of gentamycin) at a concentration of one million cells per 1 ml, and incubated over night in 90 mm Petri dishes at 37° C. and 5% CO2. On the next day, nonadherent cells were removed by washing with warm phosphate buffered saline (PBS, pH 7.4), and adherent cells were covered with Versene solution, kept at 4° C. for 60 min in a refrigerator, and then detached from the culture dish by washing with Versene solution using 5 ml pipette. […] Cell cultures were incubated for 4 days at 37° C. and 5% CO2.
Confocal microscopy images (FIG. 3A) show macrophages transduced with Ad-GFP and additionally activated by TLR4 agonist (10 μg/ml of APG, right image), as compared to control macrophages transduced with Ad-GFP without addition of APG (left image). […] The quantitative assay of GFP production was carried out using flow cytometry which determined both the absolute number of cells containing GFP and the GFP content in each cell by measuring fluorescence intensity of a single cell. The product of the number of fluorescent cells and the fluorescence intensity of each cell is proportional to the number of synthesized GFP molecules.
As is described earlier, peritoneal macrophages were transduced with Ad-GFP (2×10^7 PFU/ml) in the absence or presence of one of the above mentioned PRR agonists. Cell cultures were incubated at 37° C. and 5% CO2 for four days. After the end of incubation, cells were detached by washing with a cold Versene solution, and the percentage and absolute number of cells having green fluorescence and the intensity of cell fluorescence were determined using a FACSAria II flow cytometer. The absolute count of cells was normalized by calibration beads containing a known concentration of microspheres (CountBright Invitrogen), and discrimination between live and dead cells was carried out using a DNA-specific dye DAPI. Typical histograms of GFP fluorescence signal after the transduction of macrophages by Ad-GFP without additional activation of cells (FIG. 3D) or with additional activation of cells with CL097, the agonist of TLR7 and TLR8 (FIG. 3E), are shown.
The quantitative assessment of the enhancement of target GFP expression was performed by the formula:
K=MFI×N/MFIcontr×Ncontr, (1)
K is the enhancement (fold increase) of GFP expression;
MFI is the mean intensity of fluorescence of cells transduced with Ad-GFP with additional activation by an agonist;
MFIcontr is the mean intensity of fluorescence of cells transduced with Ad-GFP (control) without additional activation;
N is the number of fluorescent cells after the transduction with Ad-GFP with additional activation by an agonist; and
Ncontr is the number of fluorescent cells (control) after the transduction with Ad-GFP without additional activation.

[2] = test system: mouse peritoneal macrophages; experiment: Enhancement of transgenic SEAP expression in peritoneal macrophages (Example 6); conditions: TNF-α 10 ng/ml or APG 10 μg/ml vs Ad-SEAP alone
Procedure: A test liquid was clarified by centrifugation at 14,000 g for 2 min, warmed-up at 65° C. for 5 min to inhibit endogenous phosphatases, then 20 μl aliquots were transferred into each well of a 96-well plate to 130 μl of reaction buffer (0.5 M NaHCO3, 0.5 MM MgCl2, pH 9.8), and incubated at 37° C. for 10 min. Then 50 μl of 60 μM p-nitrophenyl phosphate in reaction buffer were added, and the optical density was measured at 405 nm at fixed intervals. The SEAP activity was expressed in mU/ml, considering 1 mU/ml corresponds to an increase in optical density of 0.04 U per 1 min.
Mouse peritoneal macrophages were obtained and incubated as described in the example 4. Cells were incubated in triplet culture wells with addition of Ad-GFP at 2×10^7 PFU per well in combination with TNF-α (10 ng/ml) or APG (Russian Patent no. 2195308, 10 μg/ml). In the negative control cultures, macrophages were transduced with Ad-SEAP (2×10^7 PFU) without any cell activating compound. After 4 days, the activity of SEAP was measured in the culture medium, as described in the example 2.

## CCOCc1nc2c([nH]1)c(N)nc1ccccc12 [CL097]
[1]; agonist 2.5 μg/ml
  Fold increase in the expression of GFP, calculated according to the formula (1), Mean: 14.2

## CC(C)Cn1cnc2c(N)nc3ccccc3c21 [Imiquimod, imiquimod]
[1]; agonist 10 μg/ml
  Fold increase in the expression of GFP, calculated according to the formula (1), Mean: 2.03

## Flagellin
[1]; agonist 1 μg/ml
  Fold increase in the expression of GFP, calculated according to the formula (1), Mean: 2.13

## Lauroyl-g-D-Glu-D-mDAP and Lauroyl-g-D-Glu-L-mDAP [C12-iE-DAP]
[1]; agonist 20 μg/ml
  Fold increase in the expression of GFP, calculated according to the formula (1), Mean: 3.1

## ODN 1826
[1]; agonist 0.6 μg/ml
  Fold increase in the expression of GFP, calculated according to the formula (1), Mean: 1.43

## TNF-α
[2]
  Enhancement coefficient (SEAP expression in peritoneal macrophages): 1.8

## lipoteichoic acid [LTA]
[1]; agonist 10 μg/ml
  Fold increase in the expression of GFP, calculated according to the formula (1), Mean: 2.10

Source: patent US20160201067A1, “Composition for Enhancing Transgene Expression in Eukaryotic Cells and Method for Enhancing Production of a Target Protein Encoded by a Transgene” (SILEZIA GROUP PTE. LTD, priority 2013, published 2016)
